Data: patent publication US20190274948A1, “PREBIOTIC COSMETIC COMPOSITIONS AND USE OF THE PREBIOTIC COSMETIC COMPOSITIONS” (Natura Cosméticos S.A., priority 2016, published 2019)
Where two headings read alike, the source gives them in different places.

Legend:
[1] = tested on: Staphylococcus epidermidis; assay: Prebiotic activity: growth in minimal carbon support medium; format: cell-based; details: 0.5%
Experimental: (§1) When a concentration of 10^4 UFC/ml was reached, the micro-organisms were transferred to a minimal carbon support medium that provided the conditions required for micro-organism replication.
(§2) Each active ingredient in the compositions addressed by this invention was added to the culture medium and cultivated. Should any increased count be noted, the ingredient would be considered as having prebiotic activity.
(§3) The results of each assay were submitted to statistical analysis. The active ingredients used in the prebiotic cosmetic compositions addressed by this invention were tested on different micro-organisms.
(§4) The beneficial micro-organisms assayed were: Staphylococcus epidermidis, Staphylococcus xylosus, Staphylococcus warneri, Staphylococcus captis and Corynebacterium xerosis.

[2] = tested on: Staphylococcus xylosus; assay: as above; format: cell-based
Experimental: as §1, §2, §3, §4

[3] = tested on: elastin; assay: Elastin synthesis in human fibroblast cultures; format: cell-based; details: 48 hours, vs Baseline Control
Experimental: Human fibroblast cultures were incubated for 48 hours with the product.

[4] = tested on: IL-6; assay: IL-6 synthesis in human fibroblast cultures stimulated with PMA/LPS; format: cell-based; details: vs PMA/LPS Control
[5] = tested on: IL-8; assay: IL-8 synthesis in human fibroblast cultures stimulated with LPS; format: cell-based; details: 3.12% (w/v); vs LPS Control
[6] = tested on: IL-10; assay: IL-10 synthesis in human fibroblast cultures stimulated with PMA/LPS; format: cell-based; details: concentration not given; vs PMA/LPS Control
[7] = tested on: MMP-1; assay: MMP-1 synthesis in human fibroblast cultures stimulated with LPS; format: cell-based; details: 6.25% (p/v); vs PMA/LPS Control
[8] = tested on: human fibroblasts; assay: Cell proliferation in human fibroblast cultures; format: cell-based; details: for increase of proliferation: vs Control group
Excerpt: As a positive assay control, human fibroblasts were cultivated in a culture medium supplemented with 2% of fetal bovine serum.

[9] = tested on: GAG; details: 72 hours
[10] = tested on: tested skin-dwelling micro-organisms; assay: Prebiotic activity on panel of beneficial and undesirable skin micro-organisms; format: cell-based; details: FIG. 1
Experimental: as §1, §2, §3, §4
The undesirable micro-organisms assayed were: Staphylococcus aureus, Corynebacterium striatum, Corynebacterium jeikeium, Propioniumbacteria acnes and Candida albicans.

OC[C@H]1O[C@H](O[C@H]2O[C@H](CO)[C@@H](O)[C@H](O)[C@H]2O)[C@H](O)[C@@H](O)[C@@H]1O [trehalose]
growth of S. epidermidis [1]: selectively favored the growth
growth of S. xylosus [2]: selectively favored the growth
increase of elastin synthesis ([3]; 1.56% (w/v)): 75%
increase of elastin synthesis ([3]; 3.12% (w/v)): 68%
increase of elastin synthesis ([3]; 6.25% (w/v)): 60%
drop of IL-6 synthesis ([4]; 3.12% (w/v)): 19%
drop of IL-6 synthesis ([4]; 6.25% (w/v)): 78%
reduction of IL-8 synthesis [5]: 16%
reductions of IL-10 synthesis [6]: up to 31%
reduction in MMP-1 synthesis [7]: 20%
increase of proliferation ([8]; 1.563% (w/v)): 33%
increase of proliferation ([8]; 6.250% (w/v)): 12.25%
Fibroblast proliferation, Increase ([8]; Table 1): of 33%
lowering of GAG levels ([9]; 3.12% (w/v)): 23%
lowering of GAG levels ([9]; 6.25% (w/v)): 59%

inulin
selectivity for any of the tested skin-dwelling micro-organisms [10]: did not present selectivity
